Assay results as given in PubChem BioAssay (NCI).
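All cell lines were grown in 96-well plates and treated with compound for 48 hours. Abbreviation: GI50, concentration required for 50% inhibition of growth. At the TGI there is no net growth.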

Legend:
Experiment in all cases: DTP human tumour cell line panel, 48 h
A549 NSCLC = tested on: A549 NSCLC
HT29 colon = tested on: HT29 colon
K-562 leukemia = tested on: K-562 leukemia
KM12 colon = tested on: KM12 colon
NCI-H226 lung = tested on: NCI-H226 lung
OVCAR-3 ovarian = tested on: OVCAR-3 ovarian
SF-268 CNS = tested on: SF-268 CNS
SK-MEL-5 melanoma = tested on: SK-MEL-5 melanoma
U251 CNS = tested on: U251 CNS
UACC-62 melanoma = tested on: UACC-62 melanoma

Compound	GI50 (A549 NSCLC) [µM]	TGI (A549 NSCLC) [µM]	GI50 (HT29 colon) [µM]	TGI (HT29 colon) [µM]	GI50 (K-562 leukemia) [µM]	TGI (K-562 leukemia) [µM]	GI50 (KM12 colon) [µM]	TGI (KM12 colon) [µM]	GI50 (NCI-H226 lung) [µM]	TGI (NCI-H226 lung) [µM]	GI50 (OVCAR-3 ovarian) [µM]	TGI (OVCAR-3 ovarian) [µM]	GI50 (SF-268 CNS) [µM]	TGI (SF-268 CNS) [µM]	GI50 (SK-MEL-5 melanoma) [µM]	TGI (SK-MEL-5 melanoma) [µM]	GI50 (U251 CNS) [µM]	TGI (U251 CNS) [µM]	GI50 (UACC-62 melanoma) [µM]	TGI (UACC-62 melanoma) [µM]
COc1ncc(-c2ccc3nccc(C#CCN4CCN(S(C)(=O)=O)CC4)c3c2)cc1NS(=O)(=O)c1ccc(F)cc1F	0.083	7.68	0.0237	2.1	0.665	> 41.3	0.293	1.55	0.298	2.27	0.0466	0.982	0.0985	3.93	0.192	0.723	0.211	1.75	0.0342	0.307
N#C/C(=C\c1ccc(F)cc1)n1nc2cccc(F)c2n1	4.01	> 100	3.89	> 100	3.25	> 100	2.83	> 100	4.64	> 100	2.75	> 100	4.99	> 100	3.76	> 100	3.52	> 100	3.3	> 100
O=C(NS(=O)(=O)c1ccc(NC[C@H]2COCCO2)c([N+](=O)[O-])c1)c1ccc(N2CCN(CC3=C(c4ccc(Cl)cc4)CC4(CCC4)CC3)CC2)cc1Oc1cnc2[nH]ccc2c1	3.08	14.2	2.58	8.14	3.04	> 100	2.21	5.11	1.88	3.93	1.82	3.7	2.97	17.9	1.6	2.97	2.19	5.38	1.51	3
CCN(CC)CC(O)COc1c(Br)c(Br)c(Br)c2c1OC(C)(C)C2 (stereo not given)	3.49	13.5	1.82	3.91	1.73	3.58	3.69	13.8	13.5	40.9	3.47	16.3	8.35	26.3	1.82	3.24	4.48	14.8	1.9	3.47
CCCCN(CC)CCCCCCCCCCN1CCCc2cc(OC)ccc21	5.21	20.9	1.46	4.29	2.21	5.69	2.31	5.14	2.8	8.16	3.35	11.3	6.52	32.1	1.73	3.12	2.93	7.56	2.03	5.31
Cc1ccc(NC(=O)/C(=N\NC(N)=S)C(C#N)c2ccccc2C)cc1C (stereo not given)	–	> 100	–	> 100	–	> 100	–	> 100	–	> 100	–	> 100	–	> 100	–	> 100	–	> 100	–	> 100
